≈ marks a conversion by molar mass, not a printed value. Where “and” joins values, the source holds several entries; their conditions need not be identical. Equal entries are not always repeated. Where two headings read alike, the source gives them in different places.

The values that follow come from PMC10054362, “Anti–Zika Virus Activity and Isolation of Flavonoids from Ethanol Extracts of Curatella americana L. Leaves” (Molecules, 2023).

The nature of data set [1]: Cytotoxicity evaluation by MTT assay in Vero cells. In kind it is cell-based, African green monkey. The note with it: African green monkey. Here is the method:
(§1) The cytotoxicity of ethanolic extracts of stems, leaves, fractions, and substances isolated from the C. americana species was evaluated by the colorimetric MTT method in Vero cell lines (derived from African green monkey kidneys) and MRC-5 (derived from normal human lung tissue).
(§2) Cell suspensions (Vero and MRC-5) were distributed in 96-well microplates containing 6.0 × 10^4 cells/well. The plates were incubated in a humidified 5% CO2 atmosphere at 37 °C for 24 h. Samples solubilized in dimethyl sulfoxide (DMSO) were diluted in culture medium supplemented with 1% SFB [48, 49]. Substance dilutions ranged from 800 to 0.125 µg/mL. After the formation of the cell monolayer on the surface of the wells, the culture medium was removed, and 100 μL of diluted sample solutions along with 100 μL of 1% SFB-enriched culture medium were added, and the plates were incubated under the same atmospheric condition. Seventy-two hours after the addition of samples, the culture medium was removed, and 28.0 μL of MTT solution (2.0 mg/mL in PBS) was added to each well, and the plates were incubated again for 120 min. At the end of this period, 132 μL of DMSO was added to all wells, and the plates were shaken on a plate shaker for 15 min to dissolve the formed formazan. Formazan quantification obtained by reducing tetrazolium salt in viable cells was performed on a Victor^TM X3 microplate reader® (PerkinElmer, Waltham, MA, USA) using the WorkOut 2.5 software at 490 nm. Cell multiplication was compared with cell control. Cell toxicity was expressed in terms of 50% cytotoxic concentration (CC50). The cytotoxic percentage was calculated as [(A-B)/A] × 100, where A and B are the optical densities at 490 nm (OD490) from the wells where untreated (A) and treated (B) cells are present, respectively.
(§3) Data from cytotoxicity and antiviral assays were evaluated according to their means and standard deviations. […] These analyses were performed using the GraphPad Prism 5.04 statistical package® (GraphPad Software, Boston, MA, USA).

The subject of data set [2] is Zika virus. Put plainly: Screening for anti-Zika virus activity by MTT colorimetric technique in infected Vero cells. It is filed as cell-based. The note with it: for EC50: ZIKV-infected Vero cells, MTT; for SI Vero: ratio of CC50 (Vero) to EC50. Here is the method:
After the determination of optimal noncytotoxic use concentrations, assays were performed, treating ZIKV-infected Vero cells with eight concentrations from the noncytotoxic concentrations for each sample. The results of the 50% effective concentration (EC50—concentration of the substance capable of reducing the viral cytopathic effect by 50%) and selectivity index (SI) are described in Table 2.
It was performed according to the methodology described by Brandão et al.. Sample stock solutions were prepared in DMSO (dimethyl sulfoxide) and evaluated at noncytotoxic concentrations. Vero cell monolayers were cultured in 96-well plates (6 × 10^4 cells per well). After 24 h of incubation in 5% CO2 at 37 °C, the culture medium (DMEM 5% SFB) was removed, and 100.0 μL of sample dilutions were added to each well along with 100.0 μL of the viral suspension. Then, the cultures were incubated in a humid atmosphere containing 5% CO2 at 37 °C for 72 h. Cell viability was assessed by the MTT colorimetric technique. The supernatant was removed, and then 28.0 μL of an MTT solution (2.0 mg/mL in PBS) was added to each well. The plates were incubated for 2 h at 37 °C, and after this incubation time, 132.0 μL DMSO was added to each well to dissolve the formazan crystals. The plates were stirred for 15 min (Shaker New Brunswick Scientific C24), and the optical density was determined at 490 nm (OD490) in a microplate reader.
The effective concentration that has 50% antiviral effect, or 50% effective concentration (EC50), is expressed as the concentration that promotes the protection of 50% of treated cells from destruction caused by the virus. The percentage of protection was calculated as [(AB)/CB)] × 100, where A, B, and C are the OD490 of the wells, in which are present treated and infected (A), untreated and infected (B), and untreated and non-infected cells (C), respectively.
Data from cytotoxicity and antiviral assays were evaluated according to their means and standard deviations. The cytotoxic concentration at 50% and the effective concentration at 50% were determined compared with the control obtained from nonlinear regression. These analyses were performed using the GraphPad Prism 5.04 statistical package® (GraphPad Software, Boston, MA, USA).

The nature of data set [3]: Cytotoxicity evaluation by MTT assay in MRC-5 cells. It is filed as cell-based, human. The note with it: human. The protocol:
(§4) The cytotoxicity of ethanolic extracts of stems, leaves, fractions, and substances isolated from the C. americana species was evaluated by the colorimetric MTT method in Vero cell lines (derived from African green monkey kidneys) and MRC-5 (derived from normal human lung tissue). The results of CC50 are described in Table 2.
as §2
(§5) Data from cytotoxicity and antiviral assays were evaluated according to their means and standard deviations. The cytotoxic concentration at 50% and the effective concentration at 50% were determined compared with the control obtained from nonlinear regression. […]

In data set [4] the test system is Zika virus. Put plainly: In vitro cytopathic effect inhibition assay in ZIKV-infected Vero cell monolayer. In kind it is cell-based. The note with it: Vero cells, MOI = 1, treated after infection, quercetin 20 µg/mL, leaf extract 85 µg/mL, photographed after 48 h. The protocol: This can be seen by the destruction and morphological alterations of the cells, such as rounding of cells, formation of lumps, and changes in cell refringence, especially when compared with the uninfected and untreated cell monolayer (Figure 4A).
Figure 4 Antiviral effect against Zika virus in Vero cells treated with ethanol extract of leaves and quercetin. Vero cells were infected with ZIKV, treated with ethanol extract of leaves/quercetin, and photographed after 48 h of infection. (A) Uninfected and untreated cells, (B) infected cells, (C) cells uninfected and treated with ethanol extract of leaves (85 µg/mL), (D) cells infected and treated with ethanol extract of leaves (85 µg/mL), (E) cells uninfected and treated with quercetin (20 µg/mL), (F) cells infected and treated with quercetin (20 µg/mL). Magnification, 100x.
In order to confirm the anti-ZIKV activity observed in the antiviral MTT assay, the Vero cell monolayer (9.5 × 10^6 cells per well) was infected by viral suspensions with titers of 1.0 × 10^7 TCID50/mL, (MOI = 1), Zika virus, during 1 h for the viral adsorption. Afterwards, the viral suspension was removed and the wells were washed with PBS. Then, the wells were treated with the active concentration of the compound (20 μg/mL) and ethanolic extract of leaves of C. americana (85 μg/mL). […]

A further data set has as its system Vero cells. Put plainly: Cytotoxicity evaluation by MTT assay in Vero cells. In kind it is cell-based, African green monkey. The note with it: MTT, 72 h, n = 3. Here is the method:
as §1, §2, §3

For another data set, the system named is MRC-5 cells. Put plainly: Cytotoxicity evaluation by MTT assay in MRC-5 cells. In kind it is cell-based, human. The note with it: MTT, 72 h, n = 3. Here is the method:
as §4, §2, §5

The mark [5] stands for this setting: Zika virus, 72 h, n = 3, read-out: EC50 (converted).

Take `O=c1c(O[C@@H]2O[C@H](CO)[C@@H](O)[C@H](O)[C@H]2O)c(-c2ccc(O)c(O)c2)oc2cc(O)cc(O)c12` [Quercetin-3-O-glucoside]: the CC50 at 72 h in data set [1] is > 100 µg/mL and > 216 µM; in data set [3], > 100 µg/mL and > 216 µM. Further, the EC50 entry with Zika virus [2] (72 h, n = 3) was “Inactive”; with Zika virus [2] (setting [5]), > 100 µg/mL.
Regarding `O=c1c(O)c(-c2ccc(O)c(O)c2)oc2cc(O)cc(O)c12` [Quercetin], the CC50 at 72 h in data set [1] (MTT, 72 h, n = 3, read-out: CC50 Vero (converted)) is 71.3 µg/mL and 236 µM. Also, the EC50 with Zika virus [2] (setting [5]) is 18.6 µg/mL and 61.6 µM; in the data set with Zika virus [2] (Zika virus, read-out: EC50, inhibition of the viral cytopathic effect (abstract, unit inferred)), 18.6 ± 2.8 µg/mL (≈ 61.5 µM). In the data set with Zika virus [2], the “SI Vero” value is on record as 3.8. Also, the “protection of ZIKV-infected cell monolayer from viral cytopathic effect” value in the data set with Zika virus [4] was “protect the cells from a virus infection”.
As for `NC(=O)c1ncn([C@@H]2O[C@H](CO)[C@@H](O)[C@H]2O)n1` [Ribavirin, reference compound], the cytotoxic concentration (CC50) at 72 h in data set [1] (Vero cells, MTT, 72 h, n = 3, read-out: CC50 Vero (converted)) was 370.4 ± 1.2 µg/mL (≈ 1520 µM). The EC50 in the data set with Zika virus [2] (setting [5]) was 94.5 µg/mL and 387 µM.
On to Quercetin-3-O-hexosylgallate, for which, in the data set on Vero cells, half-maximal cytotoxicity (CC50) was put at 496 µM and the “CC50 Vero” value is recorded as 305.6 ± 1.4 µg/mL. Besides, in the data set on Zika virus [2] (ratio of CC50 (MRC-5) to EC50), the “SI MRC-5” value was >0.7. Further, the “SI Vero” value in the data set on Zika virus [2] is listed as 2.0. In addition, in the data set on MRC-5 cells, the CC50 is > 162 µM and the “CC50 MRC-5” value is > 100 µg/mL.
